Test results reported in paper PMC4071569, “Investigation of Indolglyoxamide and Indolacetamide Analogues of Polyamines as Antimalarial and Antitrypanosomal Agents” (Marine Drugs, 2014).
Where two headings read alike, the source gives them in different places.

What was measured:
Format in all cases: cell-based
[1] = test system: Plasmodium falciparum, NF54 strain, IEF stage; test: In vitro antimalarial activity, NF54 drug sensitive strain; settings: for Pf SI (selectivity index for P. falciparum = IC50 L6/IC50 Pf): NF54 strain vs L6
Protocol: (§1) The in vitro activities against the protozoan parasites T.b. rhodesiense, and P. falciparum and cytotoxicity assessment against L6 cells were determined as reported elsewhere.

[2] = test system: L6 rat skeletal myoblast cell line; test: Cytotoxicity towards L6 cells; settings: read-out: IC50 L6
Protocol: as §1

[3] = test system: Trypanosoma brucei rhodesiense, STIB 900 strain, trypomastigotes stage; test: In vitro anti-trypanosomal activity (growth inhibition); settings: Trypanosoma brucei, read-out: IC50 T. b. rhod.
Protocol: as §1

[4] = Plasmodium falciparum, NF54 strain, IEF stage, average of two independent assays, read-out: IC50 P. falc.
[5] = L6 rat skeletal myoblast cell line, average of two independent assays
[6] = STIB 900 strain, trypomastigotes, average of two independent assays
[7] = NF54 strain, IEF stage, average of two independent assays, read-out: IC50 P. falc.

Row | IC50 ([1]; Plasmodium falciparum, NF54, read-out: IC50 P. falc.) [µM] | IC50 [1, 4] [µM] | IC50 [3, 6] [µM] | Molecule | Pf SI (selectivity index for P. falciparum = IC50 L6/IC50 Pf) [1] | IC50 [2, 5] [µM] | IC50 [3] [µM] | IC50 ([2]; Rattus norvegicus, Myoblast) [µM] | IC50 [1, 7] [µM]
1 |  | 0.41 |  | O=C(NCCCNCCCCCCCCNCCCNC(=O)C(=O)c1c[nH]c2cc(Br)ccc12)C(=O)c1c[nH]c2cc(Br)ccc12.O=C(O)C(F)(F)F.O=C(O)C(F)(F)F [Compound 8, N^1,N^8-Bis(3-(2-(6-bromo-1H-indol-3-yl)-2-oxoacetamido)propyl)octane-1,8-diaminium 2,2,2-trifluoroacetate] | 14 | 5.6 |  |  | 
2 |  | 0.12 |  | O=C(NCCCNCCCCNCCCNC(=O)C(=O)c1c[nH]c2ccccc12)C(=O)c1c[nH]c2ccccc12.O=C(O)C(F)(F)F.O=C(O)C(F)(F)F [Compound 13, N^1,N^4-Bis(3-(2-(1H-indol-3-yl)-2-oxoacetamido)propyl)butane-1,4-diaminium 2,2,2-trifluoroacetate] | 500 | 60 |  |  | 
3 |  | 0.11 | 2.5 | O=C(NCCCNCCCCCCCCNCCCNC(=O)C(=O)c1c[nH]c2ccccc12)C(=O)c1c[nH]c2ccccc12.O=C(O)C(F)(F)F.O=C(O)C(F)(F)F [Compound 25, N^1,N^8-Bis(3-(2-(1H-indol-3-yl)-2-oxoacetamido)propyl)octane-1,8-diaminium 2,2,2-trifluoroacetate] | 170 | 19 |  |  | 
4 |  | 0.17 | 2.2 | COc1ccc2c(C(=O)C(=O)NCCCNCCCCCCCCNCCCNC(=O)C(=O)c3c[nH]c4cc(OC)ccc34)c[nH]c2c1.O=C(O)C(F)(F)F.O=C(O)C(F)(F)F [Compound 27, N^1,N^8-Bis(3-(2-(6-methoxy-1H-indol-3-yl)-2-oxoacetamido)propyl)octane-1,8-diaminium 2,2,2-trifluoroacetate] | 120 | 21 |  |  | 
5 |  | 0.12 | 2.1 | COc1cccc2c(C(=O)C(=O)NCCCNCCCCCCCCNCCCNC(=O)C(=O)c3c[nH]c4c(OC)cccc34)c[nH]c12.O=C(O)C(F)(F)F.O=C(O)C(F)(F)F [Compound 28, N^1,N^8-Bis(3-(2-(7-methoxy-1H-indol-3-yl)-2-oxoacetamido)propyl)octane-1,8-diaminium 2,2,2-trifluoroacetate] | 55 | 6.6 |  |  | 
6 |  | 0.033 | 0.27 | O=C(NCCCNCCCCCCCCCCCCNCCCNC(=O)C(=O)c1c[nH]c2ccccc12)C(=O)c1c[nH]c2ccccc12.O=C(O)C(F)(F)F.O=C(O)C(F)(F)F [Compound 29, N^1,N^12-Bis(3-(2-(1H-indol-3-yl)-2-oxoacetamido)propyl)dodecane-1,12-diaminium 2,2,2-trifluoroacetate] | 70 | 2.3 |  |  | 
7 |  | 0.15 |  | O=C(Cc1c[nH]c2ccccc12)NCCCNCCCCCCCCNCCCNC(=O)Cc1c[nH]c2ccccc12.O=C(O)C(F)(F)F.O=C(O)C(F)(F)F [Compound 37, N^1,N^8-Bis(3-(2-(1H-indol-3-yl)acetamido)propyl)octane-1,8-diaminium 2,2,2-trifluoroacetate] | 430 | 64 |  |  | 
8 |  | 0.12 |  | O=C(Cc1c[nH]c2ccccc12)NCCCNCCCCCCCCCCCCNCCCNC(=O)Cc1c[nH]c2ccccc12.O=C(O)C(F)(F)F.O=C(O)C(F)(F)F [Compound 38, N^1,N^12-Bis(3-(2-(1H-indol-3-yl)acetamido)propyl)dodecane-1,12-diaminium 2,2,2-trifluoroacetate] | 160 | 19 |  |  | 

Further lines, the molecule ahead of its results:

Row | Molecule | IC50 ([1]; Plasmodium falciparum, NF54, read-out: IC50 P. falc.) [µM] | IC50 [1, 4] [µM] | IC50 [3, 6] [µM] | Pf SI (selectivity index for P. falciparum = IC50 L6/IC50 Pf) [1] | IC50 [2, 5] [µM] | IC50 [3] [µM] | IC50 ([2]; Rattus norvegicus, Myoblast) [µM] | IC50 [1, 7] [µM]
9 | CCN(CC)CCCC(C)Nc1ccnc2cc(Cl)ccc12 (stereo not shown) [Chloroquine, reference compound] | 0.004 |  |  |  |  |  |  | 
10 | O=C(NCCCCNCCCNC(=O)C(=O)c1c[nH]c2cc(Br)ccc12)C(=O)c1c[nH]c2cc(Br)ccc12.O=C(O)C(F)(F)F [Compound 5, 4-(2-(6-Bromo-1H-indol-3-yl)-2-oxoacetamido)-N-(3-(2-(6-bromo-1H-indol-3-yl)-2-oxoacetamido)propyl)butan-1-aminium 2,2,2-trifluoroacetate] |  | 0.25 |  | 22 | 5.5 |  |  | 
11 | O=C(NCCCNCCCCNCCCNC(=O)C(=O)c1c[nH]c2cc(Br)ccc12)C(=O)c1c[nH]c2cc(Br)ccc12.O=C(O)C(F)(F)F.O=C(O)C(F)(F)F [Compound 6, N^1,N^4-Bis(3-(2-(6-bromo-1H-indol-3-yl)-2-oxoacetamido)propyl)butane-1,4-diaminium 2,2,2-trifluoroacetate] |  | 0.36 |  | 21 | 7.7 |  |  | 
12 | CC(C)(C)OC(=O)N(CCCCCCCCN(CCCNC(=O)C(=O)c1c[nH]c2cc(Br)ccc12)C(=O)OC(C)(C)C)CCCNC(=O)C(=O)c1c[nH]c2cc(Br)ccc12 [Compound 7, Di-tert-butyl Octane-1,8-diylbis((3-(2-(6-bromo-1H-indol-3-yl)-2-oxoacetamido)propyl)carbamate)] |  | 0.27 |  | 340 | 92 |  |  | 
13 | COc1ccc2[nH]cc(C(=O)C(=O)NCCCN(CCCCCCCCN(CCCNC(=O)C(=O)c3c[nH]c4ccc(OC)cc34)C(=O)OC(C)(C)C)C(=O)OC(C)(C)C)c2c1 [Compound 18, Di-tert-butyl Octane-1,8-diylbis((3-(2-(5-methoxy-1H-indol-3-yl)-2-oxoacetamido)propyl)carbamate)] |  | 0.13 | 6.2 | ≥920 | ≥ 120 |  |  | 
14 | CC(C)(C)OC(=O)N(CCCCCCCCCCCCN(CCCNC(=O)C(=O)c1c[nH]c2ccccc12)C(=O)OC(C)(C)C)CCCNC(=O)C(=O)c1c[nH]c2ccccc12 [Compound 21, Di-tert-butyl Dodecane-1,12-diylbis((3-(2-(1H-indol-3-yl)-2-oxoacetamido)propyl)carbamate)] |  | 1.8 | 61 | ≥67 | ≥ 120 |  |  | 
15 | COc1ccc2[nH]cc(C(=O)C(=O)NCCCN(CCCCCCCCCCCCN(CCCNC(=O)C(=O)c3c[nH]c4ccc(OC)cc34)C(=O)OC(C)(C)C)C(=O)OC(C)(C)C)c2c1 [Compound 22, Di-tert-butyl Dodecane-1,12-diylbis((3-(2-(5-methoxy-1H-indol-3-yl)-2-oxoacetamido)propyl)carbamate)] |  | 0.36 | 5.2 | 53 | 19 |  |  | 
16 | COc1ccc2c(C(=O)C(=O)NCCCN(CCCCCCCCCCCCN(CCCNC(=O)C(=O)c3c[nH]c4cc(OC)ccc34)C(=O)OC(C)(C)C)C(=O)OC(C)(C)C)c[nH]c2c1 [Compound 23, Di-tert-butyl Dodecane-1,12-diylbis((3-(2-(6-methoxy-1H-indol-3-yl)-2-oxoacetamido)propyl)carbamate)] |  | 1.9 | 62 | ≥58 | ≥ 110 |  |  | 
17 | COc1cccc2c(C(=O)C(=O)NCCCN(CCCCCCCCCCCCN(CCCNC(=O)C(=O)c3c[nH]c4c(OC)cccc34)C(=O)OC(C)(C)C)C(=O)OC(C)(C)C)c[nH]c12 [Compound 24, Di-tert-butyl Dodecane-1,12-diylbis((3-(2-(7-methoxy-1H-indol-3-yl)-2-oxoacetamido)propyl)carbamate)] |  | 1.7 | 63 | ≥65 | ≥ 110 |  |  | 
18 | COc1ccc2[nH]cc(C(=O)C(=O)NCCCNCCCCCCCCNCCCNC(=O)C(=O)c3c[nH]c4ccc(OC)cc34)c2c1.O=C(O)C(F)(F)F.O=C(O)C(F)(F)F [Compound 26, N^1,N^8-Bis(3-(2-(5-methoxy-1H-indol-3-yl)-2-oxoacetamido)propyl)octane-1,8-diaminium 2,2,2-trifluoroacetate] |  | 0.13 | 0.78 | 100 | 13 |  |  | 
19 | CC(C)(C)OC(=O)N(CCCCCCCCN(CCCNC(=O)Cc1c[nH]c2ccccc12)C(=O)OC(C)(C)C)CCCNC(=O)Cc1c[nH]c2ccccc12 [Compound 34, Di-tert-butyl Octane-1,8-diylbis((3-(2-(1H-indol-3-yl)acetamido)propyl)carbamate)] |  | 0.3 |  | 17 | 5 |  |  | 
20 | CC(C)(C)OC(=O)N(CCCCCCCCCCCCN(CCCNC(=O)Cc1c[nH]c2ccccc12)C(=O)OC(C)(C)C)CCCNC(=O)Cc1c[nH]c2ccccc12 [Compound 35, Di-tert-butyl Dodecane-1,12-diylbis((3-(2-(1H-indol-3-yl)acetamido)propyl)carbamate)] |  | 0.8 |  | 56 | 45 |  |  | 
21 | Nc1nc(N)nc(Nc2ccc([As]3SCC(CO)S3)cc2)n1 (stereo not shown) [Melarsoprol, reference compound] |  |  |  |  |  | 0.005 |  | 
22 | COc1cc([C@@H]2c3cc4c(cc3[C@H](O)[C@H]3COC(=O)[C@H]23)OCO4)cc(OC)c1OC [Podophyllotoxin, reference compound] |  |  |  |  |  |  | 0.019 | 
23 | N^1,N^4-Bis(3-(2-(5-methoxy-1H-indol-3-yl)acetamido)propyl)butane-1,4-diaminium 2,2,2-trifluoroacetate [Compound 14] |  |  |  | 120 | 56 |  |  | 0.47
24 | N^1,N^4-Bis(3-(2-(6-methoxy-1H-indol-3-yl)acetamido)propyl)butane-1,4-diaminium 2,2,2-trifluoroacetate [Compound 15] |  |  |  | 110 | 54 |  |  | 0.5
